# Measured values as given in PubChem BioAssay AID2060621 (Molecular Pharmacology Branch, DTP, NCI, 2025).
# Where “and” joins values, the source holds several entries; their conditions need not be identical. Equal values may be shown once.
# Tested on: 324938-238-R-J1-PDC complex spheroids viability
# Experiment: Anticancer human tumor 324938-238-R-J1-PDC patient-derived bladder carcinoma cell line growth inhibition [CLK]
# Details: for viability, T/C: stronger effect = lower value; for IC50: curve of compound
# From the text: A high-throughput screen of multi-cell type tumor spheroids was designed to identify active combinations of […] and targeted small molecules. Complex spheroids include a stromal component modeled by human endothelial cells (HUVEC) and fibroblasts modeled by human mesenchymal stem cells (MSCs). The concentration ranges selected for each drug and investigational agent were based upon clinically achievable concentrations if the clinical Cmax of the agent was known.
# Compounds. The drugs and investigational agents: cirtuvivint (SM08502; NSC835563), CC-671 (NSC850746), vemurafenib (NSC761431), tapotoclax (NSC804041), sotorasib (NSC818433), adagrasib (NSC831453), MRTX-1133 (NSC836407), BAY2416964 (NSC825713), copanlisib (NSC816437), inavolisib (NSC800729), abemaciclib (NSC768073), osimertinib (NSC779217), entinostat (NSC756642), eltanexor (KPT-8602, NSC794443), venetoclax (NSC766270), ceralasertib (NSC777638), bortezomib (NSC756655), olaparib (NSC753686), talazoparib (NSC767125), alisertib (NSC759677), peposertib (NSC802822), gemcitabine (NSC613327), 5-fluorouracil (NSC19893), SN-38 (NSC673596), oxaliplatin (NSC266046), paclitaxel (NSC125973), and doxorubicin (NSC123127), were obtained from the National Cancer Institute (NCI) Developmental Therapeutics Program Chemical Repository. The FDA-approved anticancer drug set is available from the Developmental Therapeutics Program at https://dtp.cancer.gov/organization/dscb/obtaining/available plates.htm. […] The stock solutions were prepared in dimethyl sulfoxide (DMSO, Sigma-Aldrich, St. Louis, MO, cat. D2650), except for the platinum complexes which were prepared in saline (Quality Biological, Gaithersburg, MD, cat. 114-055-101), at 800-fold the tested concentration and stored at -70 degrees C prior to their use. All drugs and investigational agents were tested over a range starting from a high concentration at or near the clinical Cmax and decreasing in half-log increments. If the clinical Cmax for an agent had not been determined, the highest concentration tested was 10 microM.
# Cell Culture. All cells were maintained in an incubator at 37 degrees C and 5% CO2 with 95% humidity. The PDC lines were cultured according to standard operating procedures established by the NCI PDMR. Briefly, all PDCs were thawed and cultured in Matrigel-coated flasks prepared with a working solution of 1X Ham's F-12 nutrient mix, without supplementation (Invitrogen, Waltham, MA, cat. 11765054), 100 U/mL penicillin-streptomycin (Invitrogen, cat. 15140122), and 2.5% Matrigel (Corning Inc., Corning, NY, cat. 354248) for the first three passages. The 947758-054-R-J2-PDC line was cultured in 6B/Colon 1A media, which includes advanced DMEM/F-12 (Thermo Fisher Scientific, cat. 12634028), 10 mM HEPES (Thermo Fisher Scientific, cat. 15630080), 1X GlutaMAX supplement (Thermo Fisher Scientific, cat. 35050061), 0.1 mg/mL primocin (InvivoGen, cat. ant-pm-2), 10% defined fetal bovine serum, heat inactivated (HyClone Laboratories Inc., cat. SH30070.03HI), 1.25 mM N-Acetyl-L-cysteine (Sigma-Aldrich, cat. A9165), 10 mM nicotinamide (Sigma-Aldrich, cat. N0636), 1X B-27 supplement (Thermo Fisher Scientific, cat. 17504044), 1X N-2 supplement (Thermo Fisher Scientific, cat. 17502048), and 10 microM Y-27632 dihydrochloride (Tocris Bioscience, cat. 1254). The 876862-298-R-J1-PDC was cultured in 6E media, which includes all 6B/Colon 1A media components plus 50% L-WRN conditioned media (ATCC, cat. CRL-3276), 50 ng/mL recombinant human EGF recombinant protein (hEGF; Thermo Fisher Scientific, cat. PHG0311), 10 ng/mL recombinant human fibroblast growth factor 10 (hGFG-10; PeproTech, cat. 100-26), 1 ng/mL recombinant human fibroblast growth factor 2 (hFGF-2; PeproTech, cat. 100-18B), and 1 µM prostaglandin E2 (PGE2; Tocris, cat. 2296). The 227483-062-R1-J1-PDC line was cultured in Panc media, containing all 6E components except hFGF-2, with the addition of 500 nM SB-431542 (Selleckchem, cat. S1067) and 10 nM gastrin (Tocris, cat. 3006). […]
# 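Further: viability read after seven days of drug exposure.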
# 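Wherever viability, T/C is given: 100% = DMSO vehicle control wells.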
SMILES,"viability, T/C (compound 0.0316 µM)","viability, T/C (compound 0.1 µM)","viability, T/C (compound 0.316 µM)","viability, T/C (compound 1 µM)","viability, T/C (compound 3.16 µM)","viability, T/C (compound 10 µM)",IC50,"viability, T/C (compound 0.000949 µM)","viability, T/C (compound 0.003 µM)","viability, T/C (compound 0.00949 µM)","viability, T/C (compound 0.03 µM)","viability, T/C (compound 0.0949 µM)","viability, T/C (compound 0.3 µM)"
COc1cccc2c1C(=O)c1c(O)c3c(c(O)c1C2=O)CC(O)(C(=O)CO)CC3OC1CC(N)C(O)C(C)O1 (stereo not given),18.6% and 20.6%,12.3% and 18%,7.21% and 8.55%,1.1% and 0.74%,0.07% and 0.13%,0.18% and 0.15%,< 31.6 nM,,,,,,
CC1COCCN1c1cc(C2(S(C)(=N)=O)CC2)nc(-c2ccnc3[nH]ccc23)n1 (stereo not given),85.2% and 72.7%,86.7% and 79%,73.1% and 77.7%,68.5% and 59.5%,33.5% and 27.7%,14.9% and 13%,1780 nM and 1440 nM,,,,,,
O=C(c1cc(Cc2n[nH]c(=O)c3ccccc23)ccc1F)N1CCN(C(=O)C2CC2)CC1,73.8% and 84.1%,75.1% and 88.4%,71.4% and 72.4%,83.3% and 73.8%,57% and 60.5%,31.8% and 31.7%,4350 nM and 4650 nM,,,,,,
CC(C)CC(NC(=O)C(Cc1ccccc1)NC(=O)c1cnccn1)B(O)O (stereo not given),,,,,,,1.23 nM and 1.07 nM,63.7% and 55.5%,2.77% and 1.54%,0.22% and 0.18%,0.44% and 0.2%,0.18% and 0.12%,0.35% and 0.13%
CC(CO)NC(=O)c1cc(-c2ccc(Cl)cc2)nn(-c2cnn(C)c2)c1=O (stereo not given),84.8% and 86.6%,92.3% and 81.3%,71.5% and 73.9%,78.2% and 76.1%,60.9% and 59.9%,47.1% and 42.9%,8050 nM and 6340 nM,,,,,,
